Reference: patent US9512178B2, “Neurogenic brain-derived neurotrophic factor peptides” (Research Foundation for Mental Hygiene, Inc., priority 2012, dated 2016)

Experiments:
TrkB receptor = target: T1, TrkB receptor (Mus musculus, UniProt P15209); experiment: TrkB phosphorylation (Tyr 706) and TrkB level in primary E18 hippocampal cells, with or without K252a; type: cell-based; details: 1 μM; for increase in the phosphorylation of the TrkB receptor: 5 min, without K252a; for TrkB levels / activation of TrkB (pTrkB Tyr 706 normalized to total TrkB): 1 h
T1 construct: endogenous in cells; host or cells: primary hippocampal neurons from embryonic day 18 C57BL/6 mice
Experimental: Peptides were dissolved in water in serial dilutions of 10 mM, 1 mM, 100 μM and 10 μM from which the necessary amount was added directly to the culture medium to a final concentration of 0.05 μM, 1 μM, or 10 μM. The BDNF (Peprotech, NJ, USA) was used as a reference in concentrations of 20 ng/ml (0.79 nM) and 100 ng/ml (3.95 nM). Cycloheximide (CHX) (Sigma-Aldrich, St Louis, Mo., USA) was used for blocking protein synthesis. CHX original stock was 100 mg/ml (355.4 mM) in DMSO; from a second stock of 35.54 mM in DMSO, the dilutions were made to the final concentrations of 100 μM. The K252a (CALBIOCHEM/EMD) was used to inhibit the TrkB Receptor. From a stock of 100 μM in DMSO, K252a was diluted to a final working concentration of 200 nM. The E18 primary hippocampal cells were pre-treated with CHX or K252a 1 h prior to the addition of the peptides or BDNF and a time course of these treatments for 15 min, 60 min and 2 days was studied.
(§1) Following treatment in 6-well plates, cells were washed 2× in glucose buffered saline, GBS (5.4 mM KCl, 138 mM NaCl, 22 mM glucose, and 2 mM Na—KPO pH 7.2), and then lysed by 5 min incubation on ice in 100 or 150 μl of ice-cold RIPA buffer (PBS, 1% w/v NP-40 from Fisher Scientific, 0.1% w/v SDS, and 0.5% w/v sodium desoxycholate) containing 1 mM AEBSF (Gold Biotechnology, St. Louis, Mo., USA), 10 μg/ml aprotinin (Sigma-Aldrich, St. Louis, Mo., USA), and 20 μg/ml of leupeptin and pepstatin (US Biochemicals, Cleveland, Ohio, USA), and phosphatase inhibitors: NaF, Na orthovanadate, (3-glycerophosphate, and microcystein (Sigma-Aldrich, St. Louis, Mo., USA). Extracts were prepared by collecting and pooling a minimum of 2 wells by scraping, and lysates were centrifuged at 20,000×g for 10 min at 4° C. Protein concentration of each cell lysate was determined using the BCA kit (Thermo Scientific, Rockford, Ill., USA). The lysates (7.5-20 μg total protein) were separated on 10% SDS-PAGE gels (except for BDNF where 12% gels were employed) and transferred to 0.45 μm PVDF membrane (Pall, Pensacola, Fla., USA) for probing with antibodies as noted. Blots were blocked for 1 hr at 37° C. in 1×TBST (0.05% Tween 20 in TBS) containing 5% w/v blotting grade dry milk (Bio-rad, Hercules, Calif., USA), incubated in primary antibody overnight in blocking buffer at 4° C., washed 3×10 min in TBST at room temperature, followed by incubation with secondary antibody, i.e., peroxidase-conjugated anti-mouse or anti rabbit IgG (Jackson ImmunoResearch Laboratories, West Grove, Pa., USA) diluted in blocking buffer. Blots were washed 3×10 min in TBST and immunoreactive protein bands were visualized with enhanced chemiluminescence (ECL) reagents (Pierce, Rockford, Ill., USA). The ECL films of the blots were scanned and analyzed using Multi Gauge software version 3.0 (Fujifilm, Tokyo, Japan).
The following primary antibodies were used: rabbit polyclonal anti-NFM (1:1000; Chemicon/Millipore, Billerica, Mass., USA); mouse monoclonal anti-NeuN, clone A60 (1:500; Millipore, Billerica, Mass., USA); rabbit polyclonal anti-Tuj-1, (3—III-tubulin (Covance; 1:800, Emeryville, Calif., USA); mouse monoclonal SMI 52 to the adult isoforms of MAP-2, MAP2a,b (1:1000; Covance, Emeryvilly, Calif., USA); rabbit polyclonal anti-Synapsin I (1:2000; Stressgen, Farmingdale, N.Y., USA); rabbit monoclonal anti-PSD95 (1:1000; Cell signaling, Danvers, Mass., USA); anti tau 92e (1:10000); mouse monoclonal anti-BDNF (1:1000; Calbiochem, Gibbstown, N.J., USA); rabbit polyclonal anti-TrkB (total) (1:500; Santa Cruz Biotechnology, Santa Cruz, Calif., USA); rabbit polyclonal anti-pTrkB (Tyr706) (1:400; Santa Cruz Biotechnology, Santa Cruz, Calif., USA), TrkC (1:1000; Cruz Biotechnology, Santa Cruz, Calif., USA); and pTrkY490 (1:500; Upstate USA Inc., Charlottesville, Va., USA). For loading control, the blots were developed with rabbit polyclonal antibody to GAPDH (1:2000; Santa Cruz Biotechnology, Santa Cruz, Calif., USA). […]

BDNF = BDNF expression, Western blot, 5 days treatment; type: cell-based, mouse
Experimental: as §1
The following primary antibodies were used: rabbit polyclonal anti-NFM (1:1000; Chemicon/Millipore, Billerica, Mass., USA); mouse monoclonal anti-NeuN, clone A60 (1:500; Millipore, Billerica, Mass., USA); rabbit polyclonal anti-Tuj-1, (3—III-tubulin (Covance; 1:800, Emeryville, Calif., USA); mouse monoclonal SMI 52 to the adult isoforms of MAP-2, MAP2a,b (1:1000; Covance, Emeryvilly, Calif., USA); rabbit polyclonal anti-Synapsin I (1:2000; Stressgen, Farmingdale, N.Y., USA); rabbit monoclonal anti-PSD95 (1:1000; Cell signaling, Danvers, Mass., USA); anti tau 92e (1:10000); mouse monoclonal anti-BDNF (1:1000; Calbiochem, Gibbstown, N.J., USA); rabbit polyclonal anti-TrkB (total) (1:500; Santa Cruz Biotechnology, Santa Cruz, Calif., USA); rabbit polyclonal anti-pTrkB (Tyr706) (1:400; Santa Cruz Biotechnology, Santa Cruz, Calif., USA), TrkC (1:1000; Cruz Biotechnology, Santa Cruz, Calif., USA); and pTrkY490 (1:500; Upstate USA Inc., Charlottesville, Va., USA). For loading control, the blots were developed with rabbit polyclonal antibody to GAPDH (1:2000; Santa Cruz Biotechnology, Santa Cruz, Calif., USA).
To investigate the molecular mechanism by which the BDNF peptides promoted neurogenic/neurotrophic activities, the hippocampal primary cultured neurons were treated with the peptides or BDNF for five days and compared with the control medium treated cells.

TrkC = target: T2, TrkC (Homo sapiens, UniProt Q16288); experiment: Trk phosphorylation and TrkC expression in TrkC stably-expressing NIH-3T3 cells; type: cell-based; details: for expression of TrkC: 1 μM; for activation of TrkC receptor: peptides 1 μM
T2 construct: expressed in transfected cells; host or cells: NIH-3T3 fibroblasts
T2 sequence (Q16288 32-839, species assumed): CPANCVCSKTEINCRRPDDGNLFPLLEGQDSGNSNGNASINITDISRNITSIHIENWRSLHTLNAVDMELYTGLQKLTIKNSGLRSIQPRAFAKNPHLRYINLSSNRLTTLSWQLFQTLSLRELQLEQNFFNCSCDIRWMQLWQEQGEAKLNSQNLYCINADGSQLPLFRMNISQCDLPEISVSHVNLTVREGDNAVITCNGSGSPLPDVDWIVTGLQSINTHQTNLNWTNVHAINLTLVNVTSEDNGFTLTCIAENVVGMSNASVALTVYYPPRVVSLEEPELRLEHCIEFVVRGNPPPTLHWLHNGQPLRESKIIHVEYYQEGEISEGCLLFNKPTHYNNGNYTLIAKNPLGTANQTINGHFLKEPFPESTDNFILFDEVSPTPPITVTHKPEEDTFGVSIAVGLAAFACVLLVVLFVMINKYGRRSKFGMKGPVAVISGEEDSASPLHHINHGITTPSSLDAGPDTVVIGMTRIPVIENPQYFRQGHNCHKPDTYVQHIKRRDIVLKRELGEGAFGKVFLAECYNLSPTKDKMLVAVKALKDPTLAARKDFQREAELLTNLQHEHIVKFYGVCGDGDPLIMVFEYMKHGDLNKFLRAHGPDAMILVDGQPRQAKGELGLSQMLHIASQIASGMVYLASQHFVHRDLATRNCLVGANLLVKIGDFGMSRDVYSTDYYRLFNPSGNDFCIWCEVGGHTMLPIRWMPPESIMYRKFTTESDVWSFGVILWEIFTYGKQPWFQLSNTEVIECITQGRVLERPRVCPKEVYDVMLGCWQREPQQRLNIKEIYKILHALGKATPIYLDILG

T1 sequence (P15209 32-821): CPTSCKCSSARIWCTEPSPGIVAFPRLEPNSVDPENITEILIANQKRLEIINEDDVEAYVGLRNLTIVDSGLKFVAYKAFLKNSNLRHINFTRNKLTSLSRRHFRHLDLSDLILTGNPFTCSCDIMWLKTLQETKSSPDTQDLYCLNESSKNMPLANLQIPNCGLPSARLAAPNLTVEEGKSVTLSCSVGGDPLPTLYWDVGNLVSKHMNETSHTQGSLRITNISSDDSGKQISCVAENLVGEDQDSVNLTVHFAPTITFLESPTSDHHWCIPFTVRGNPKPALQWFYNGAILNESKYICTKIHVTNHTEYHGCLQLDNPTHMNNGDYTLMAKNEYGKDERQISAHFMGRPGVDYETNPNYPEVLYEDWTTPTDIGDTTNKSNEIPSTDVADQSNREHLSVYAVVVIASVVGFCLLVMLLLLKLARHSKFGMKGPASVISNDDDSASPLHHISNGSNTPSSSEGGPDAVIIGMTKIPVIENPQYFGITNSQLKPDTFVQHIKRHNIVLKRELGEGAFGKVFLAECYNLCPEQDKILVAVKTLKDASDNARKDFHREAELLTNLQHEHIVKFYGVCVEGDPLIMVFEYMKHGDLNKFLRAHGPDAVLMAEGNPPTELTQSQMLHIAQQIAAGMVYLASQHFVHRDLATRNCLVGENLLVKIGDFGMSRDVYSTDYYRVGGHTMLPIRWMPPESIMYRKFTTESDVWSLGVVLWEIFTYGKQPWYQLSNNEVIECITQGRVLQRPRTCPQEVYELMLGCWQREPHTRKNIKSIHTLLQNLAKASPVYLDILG

Substance: Ac-S-KKR-CONH2 [Peptide B-3]
- increase in the phosphorylation of the TrkB receptor (TrkB receptor): significant
- TrkB levels (TrkB receptor): increased
- activation of TrkB (pTrkB Tyr 706 normalized to total TrkB) (TrkB receptor): relatively weak activation
- expression of BDNF (Western blot) (BDNF; 0.1 μM): not at 0.1 μM
- expression of BDNF (Western blot) (BDNF; 1 μM): induced an increase
- expression of BDNF (Western blot) (BDNF; vs control medium): induced the expression of BDNF
- expression of TrkC (TrkC): neither BDNF (20 ng/mL) nor peptides B-5 (1 μM) and B-3 (1 μM) were able to modify the expression of TrkC
- activation of TrkC receptor (TrkC): neither the peptides nor BDNF were able to activate this receptor

Substance: Ac-I-K-R-G-CONH2 [Peptide B-5]
- increase in the phosphorylation of the TrkB receptor (TrkB receptor): significant
- TrkB levels (TrkB receptor): increased
- activation of TrkB (pTrkB Tyr 706 normalized to total TrkB) (TrkB receptor): relatively weak activation
- expression of BDNF (Western blot) (BDNF; 0.1 μM): strongest induction
- expression of BDNF (Western blot) (BDNF; 1 μM): lost
- expression of BDNF (Western blot) (BDNF; vs control medium): induced the expression of BDNF
- expression of TrkC (TrkC): neither BDNF (20 ng/mL) nor peptides B-5 (1 μM) and B-3 (1 μM) were able to modify the expression of TrkC
- activation of TrkC receptor (TrkC): neither the peptides nor BDNF were able to activate this receptor
